Assay results published in patent publication US12116359B2, “EBNA1 inhibitor crystalline forms, and methods of preparing and using same” (THE WISTAR INSTITUTE, priority 2018, dated 2024).
Entries after “also recorded” stand apart in the source; their conditions may differ. Like-named read-outs stand apart in the source and are kept apart here.

How the values were obtained:
Format in all cases: physicochemical
[1] = Further stability experiments on crystalline forms (vacuum drying, grinding, storage)
Experimental: Further experiments were carried out, involving heating, vacuum drying and/or grinding the materials in order to assess the stability of the solvated materials and the potential crystallization of an anhydrous form by desolvation.

[2] = Storage stability of solid forms at elevated temperature/humidity (XRPD, HPLC purity)
Experimental: Purity analysis was performed on an Agilent HP1100 series system equipped with a diode array detector and using ChemStation software vB.04.03 using the method detailed in Table 1.
Amorphous (I) free acid was stored at 40° C./75% RH (open vial), 25° C./97% RH (open vial) and 60° C. (closed vial, ambient humidity) for 8 weeks.
Characterization by XRPD, ^1H NMR, TGA, DSC and storage at 40° C./75% RH for one week was carried out. Details are found in Table 10.

[3] = Gravimetric vapour sorption (GVS); settings: for Hygroscopicity: GVS, 0-90% RH
Experimental: Sorption isotherms were obtained using a SMS DVS Intrinsic moisture sorption analyzer, controlled by DVS Intrinsic Control software. The sample temperature was maintained at 25° C. by instrument controls. The humidity was controlled by mixing streams of dry and wet nitrogen, with a total flow rate of 200 ml/min. The relative humidity was measured by a calibrated Rotronic probe (dynamic range of 1.0-100% RH), located near the sample. The weight change (mass relaxation) of the sample as a function of % RH was constantly monitored by the microbalance (accuracy ±0.005 mg). Typically 5-20 mg of sample was placed in a tared mesh stainless steel basket under ambient conditions. The sample was loaded and unloaded at 40% RH and 25° C. (typical room conditions). A moisture sorption isotherm was performed as outlined below (2 scans giving 1 complete cycle). The standard isotherm was performed at 25° C. at 10% RH intervals over a 0-90% RH range. Data analysis was carried out using Microsoft Excel. The sample was recovered after completion of the isotherm and re-analyzed by XRPD.

[4] = Preliminary solubility assessment in solvents; settings: RT
Experimental: Amorphous (I) free acid (post washing, ca. 20 mg) was dissolved or suspended in a range of solvent systems (using 10 or 20 volumes) at RT. Solutions were placed in a fridge at 4° C. overnight. If no solid was obtained, the solution was then allowed to evaporate at RT. Suspensions were matured between RT-50° C. heat-cool cycles (8 h per cycle) for up to 7 days. Solids were analyzed by XRPD.

[5] = Storage stability of solid forms at elevated temperature/humidity (XRPD, HPLC purity); settings: 4 weeks

## O=C(O)c1cccc(C#Cc2ccc(COC3CCOCC3)cc2)c1-c1ccc2cc[nH]c2c1 [Pattern 2, 2-(1H-Indol-6-yl)-3-[4-(tetrahydro-pyran-4-yloxymethyl)-phenylethynyl]-benzoic acid]
[1]; 1H NMR, 0.5 eq. toluene as prepared
  Grinding and vacuum drying at 55° C.: solvent content: 0.3 eq. toluene
[1]; XRPD
  Grinding and vacuum drying at 55° C.: crystallinity: significant loss of crystallinity; also recorded: Lower crystallinity
[1]; solid form and solvent content by XRPD or 1H NMR
  Vacuum drying 40° C. or 55° C.: Unchanged by XRPD

## O=C(O)c1cccc(C#Cc2ccc(COC3CCOCC3)cc2)c1-c1ccc2cc[nH]c2c1 [Pattern 4, 2-(1H-Indol-6-yl)-3-[4-(tetrahydro-pyran-4-yloxymethyl)-phenylethynyl]-benzoic acid]
[2]; 40° C./75% RH, 7 days, solid form by XRPD
  Storage at 40° C./75% RH for 7 days: Unchanged

## O=C(O)c1cccc(C#Cc2ccc(COC3CCOCC3)cc2)c1-c1ccc2cc[nH]c2c1 [Amorphous (I) free acid, 2-(1H-Indol-6-yl)-3-[4-(tetrahydro-pyran-4-yloxymethyl)-phenylethynyl]-benzoic acid]
[3]
  Hygroscopicity: hygroscopic
[3]; listed as main batch
  Hygroscopicity: hygroscopic
[3]; after 0-90% RH isotherm, listed as (I) free acid amorphous material
  XRPD after GVS: 0-90% RH with hysteresis. Unchanged by XRPD.
[3]; between 0-90% RH, 25° C.
  GVS moisture uptake: ca. 5.50%
  GVS reversible moisture uptake: 5.5% w/w reversible moisture uptake between
[2]; 25° C./97% RH, 8 weeks
  Decrease in chemical purity after storage: 4.0 % (AUC)
[2]; 25° C./97% RH, open vial, 8 weeks
  XRPD after storage at 25° C./97% RH for 8 weeks: completely amorphous trace by XRPD; also recorded: amorphous traces
[2]; 25° C./97% RH, open vial, 8 weeks, initial purity 95.5% (AUC)
  Purity by HPLC after storage at 25° C./97% RH for 8 weeks: 91.5 % (AUC)
[2]; 25° C./97% RH, open vial, 8 weeks, initial purity 95.5% (AUC), listed as (I) free acid amorphous material
  Purity by HPLC after storage at 25° C./97% RH for 8 weeks: present. 91.5% (AUC) purity.
[2]; 40° C./75% RH, 8 weeks
  Decrease in chemical purity after storage: 2.0 % (AUC)
[2]; 40° C./75% RH, open vial, 8 weeks
  XRPD after storage at 40° C./75% RH for 8 weeks: unchanged by XRPD; also recorded: amorphous traces
[2]; 40° C./75% RH, open vial, 8 weeks, initial purity 95.5% (AUC)
  Purity by HPLC after storage at 40° C./75% RH for 8 weeks: 93.5 % (AUC)
[2]; 40° C./75% RH, open vial, 8 weeks, listed as (I) free acid amorphous material
  XRPD after storage at 40° C./75% RH for 8 weeks: Unchanged by XRPD
[2]; 60° C., 8 weeks
  Decrease in chemical purity after storage: 1.1 % (AUC)
[2]; 60° C., closed vial, ambient humidity, 8 weeks
  XRPD after storage at 60° C. for 8 weeks: unchanged by XRPD; also recorded: amorphous traces
[2]; 60° C., closed vial, ambient humidity, 8 weeks, initial purity 95.5% (AUC)
  Purity by HPLC after storage at 60° C. for 8 weeks: 94.4 % (AUC)
[2]; 60° C., closed vial, ambient humidity, 8 weeks, listed as (I) free acid amorphous material
  XRPD after storage at 60° C. for 8 weeks: Unchanged by XRPD
[4]; 1,4-dioxane, organic solvent or mixture, thermodynamic from solid, 1,4-Dioxane, 10 vol, read-out: Solubility assessment 10 vol
  solubility: > 100 mg/mL
[4]; 2-propanol, organic solvent or mixture, thermodynamic from solid, 2-Propanol, 10 vol, read-out: Solubility assessment 10 vol
  solubility: > 100 mg/mL
[4]; acetone, organic solvent or mixture, thermodynamic from solid, Acetone, 10 vol, read-out: Solubility assessment 10 vol
  solubility: > 100 mg/mL
[4]; acetone/5% water, organic solvent or mixture, thermodynamic from solid, Acetone/5% water, 10 vol, read-out: Solubility assessment 10 vol
  solubility: > 100 mg/mL
[4]; acetonitrile, organic solvent or mixture, thermodynamic from solid, Acetonitrile, 10 vol, read-out: Solubility assessment 10 vol
  solubility: > 100 mg/mL
[4]; anisole, organic solvent or mixture, thermodynamic from solid, Anisole, 10 vol, read-out: Solubility assessment 10 vol
  solubility: > 100 mg/mL
[4]; dichloromethane, organic solvent or mixture, thermodynamic from solid, Dichloromethane, 10 vol, read-out: Solubility assessment 10 vol
  solubility: > 100 mg/mL
[4]; ethanol, organic solvent or mixture, thermodynamic from solid, Ethanol, 10 vol, read-out: Solubility assessment 10 vol
  solubility: > 100 mg/mL
[4]; ethanol/5% water, organic solvent or mixture, thermodynamic from solid, Ethanol/5% water, 10 vol, read-out: Solubility assessment 10 vol
  solubility: > 100 mg/mL
[4]; ethyl acetate, organic solvent or mixture, thermodynamic from solid, Ethyl Acetate, 10 vol, read-out: Solubility assessment 10 vol
  solubility: > 100 mg/mL
[4]; heptane, organic solvent or mixture, thermodynamic from solid, Heptane, 10 vol, read-out: Solubility assessment 10 vol
  solubility: < 100 mg/mL
[4]; heptane, organic solvent or mixture, thermodynamic from solid, Heptane, 20 vol, read-out: Solubility assessment 20 vol
  solubility: < 50 mg/mL
[4]; methanol, organic solvent or mixture, thermodynamic from solid, Methanol, 10 vol, read-out: Solubility assessment 10 vol
  solubility: > 100 mg/mL
[4]; methylethyl ketone, organic solvent or mixture, thermodynamic from solid, Methylethyl Ketone, 10 vol, read-out: Solubility assessment 10 vol
  solubility: > 100 mg/mL
[4]; methylisobutyl ketone (printed Methylisoburyl Ketone), organic solvent or mixture, thermodynamic from solid, Methylisoburyl Ketone, 10 vol, read-out: Solubility assessment 10 vol
  solubility: > 100 mg/mL
[4]; nitromethane, organic solvent or mixture, thermodynamic from solid, Nitromethane, 10 vol, read-out: Solubility assessment 10 vol
  solubility: < 100 mg/mL
[4]; nitromethane, organic solvent or mixture, thermodynamic from solid, Nitromethane, 20 vol, read-out: Solubility assessment 20 vol
  solubility: < 50 mg/mL
[4]; tetrahydrofuran, organic solvent or mixture, thermodynamic from solid, Tetrahydrofuran, 10 vol, read-out: Solubility assessment 10 vol
  solubility: > 100 mg/mL
[4]; toluene, organic solvent or mixture, thermodynamic from solid, Toluene, 10 vol, read-out: Solubility assessment 10 vol
  solubility: < 100 mg/mL
[4]; toluene, organic solvent or mixture, thermodynamic from solid, Toluene, 20 vol, read-out: Solubility assessment 20 vol
  solubility: < 50 mg/mL
[4]; water, thermodynamic from solid, Water, 10 vol, read-out: Solubility assessment 10 vol
  solubility: < 100 mg/mL
[4]; water, thermodynamic from solid, Water, 20 vol, read-out: Solubility assessment 20 vol
  solubility: < 50 mg/mL

## O=C(O)c1cccc(C#Cc2ccc(COC3CCOCC3)cc2)c1-c1ccc2cc[nH]c2c1 [Pattern 1, 2-(1H-Indol-6-yl)-3-[4-(tetrahydro-pyran-4-yloxymethyl)-phenylethynyl]-benzoic acid]
[5]; listed as Crystalline (I)
  XRPD after storage at 25° C./97% RH for 4 weeks: remained unchanged by XRPD
  XRPD after storage at 40° C./75% RH for 4 weeks: remained unchanged by XRPD
[5]; listed as crystalline batch
  XRPD after storage at 25° C./97% RH for 4 weeks: remained unchanged by XRPD
  XRPD after storage at 40° C./75% RH for 4 weeks: remained unchanged by XRPD
[2]; 25° C./97% RH, 4 weeks
  XRPD after storage at 25° C./97% RH for 4 weeks: Unchanged by XRPD.
[2]; 40° C./75% RH, 4 weeks
  XRPD after storage at 40° C./75% RH for 4 weeks: Unchanged by XRPD.

## O=C(O)c1cccc(C#Cc2ccc(COC3CCOCC3)cc2)c1-c1ccc2cc[nH]c2c1 [Pattern 3, 2-(1H-Indol-6-yl)-3-[4-(tetrahydro-pyran-4-yloxymethyl)-phenylethynyl]-benzoic acid]
[1]; 40° C./75% RH, 3.5 days, XRPD and 1H NMR
  Storage at 40° C./75% RH for 3.5 days: Unchanged by
